Assay results as given in US11844767B2, “Composition and methods for stimulating clearance of amyloid-beta protein” (Rush University Medical Center, priority 2016, dated 2023).

Assays:
[1] = test system: LDLR; experiment: Quantitative RT-PCR of LDLR expression in astrocytes; format: cell-based, mouse
Procedure: The mRNA quantification was performed using the ABI-Prism7700 sequence detection system using SYBR Select master mix. The mRNA expression of the targeted genes was normalized to the level of Gapdh mRNA and data was processed by the ABI Sequence Detection System 1.6 software.

[2] = test system: TFEB; conditions: alone and in conjunction with all-trans-retinoic acid; cited from earlier work

SMILES: Cc1ccc(C)c(OCCCC(C)(C)C(=O)O)c1 [GFB, gemfibrozil]
- expression of LDLR ([1]; PPARα(−/−) cells): not
- expression of LDLR ([1]; WT astrocytes): increased
- TFEB in brain cells [2]: capable of enhancing TFEB
